Some test systems named below: MOLT-4; HOP-92; OVCAR-3; NCI-H460; HCC 2998; MCF7; TK-10; HCT-116; OVCAR-8; T47D; HCT-15; NCI-H522; MDA-N; CAKI-1; RXF 393; SNB-75; OVCAR-4; SK-OV-3; MDA-MB-435.
What all share (test): DTP human tumour cell line panel, 48 h

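All cell lines were grown in 96-well plates and treated with compound for 48 hours. Abbreviation: GI50, concentration required for 50% inhibition of growth.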 The source made the active and inactive calls. Cut-off read from the data, not from the text of the source: active = GI50 up to about 1.1 µM and inactive = higher. Square brackets hold non-standard residues; d marks the D form. Peptide text beside a SMILES is read from it. * marks the point of attachment. ξ: configuration not given here. ξF = NC(Cc1ccccc1)C(=O)O; Cbz = O=C(OCc1ccccc1)*; Aib = CC(C)(N)C(=O)O Some results are limits rather than exact numbers.

On to `O=C(O)c1ccc(C2SCc3nc4ccccc4n32)cc1` (centres undefined), for which the GI50 with MOLT-4, in the experiment with HOP-92, in the experiment with OVCAR-3, with NCI-H460, in the experiment with HCC 2998 and in the experiment on MCF7 was > 100 µM (inactive) throughout. Besides, the GI50 in the experiment with TK-10 is > 100 µM (inactive); in the experiment with HCT-116 it was > 100 µM (inactive); with OVCAR-8, > 100 µM (inactive); in the experiment with T47D, > 10 µM (inactive); in the experiment on HCT-15, greater than 100 µM; in the experiment on NCI-H522 it was > 100 µM (inactive). The GI50 with MDA-N, in the experiment with CAKI-1, in the experiment with RXF 393, in the experiment on SNB-75 and with OVCAR-4 was > 100 µM (inactive) each time.

As to `COC(=O)CCc1ccc2c(c1)CCC2`, the GI50 in the experiment with MOLT-4 was > 100 µM (inactive); with HOP-92 it was 15.1 µM (inactive); with OVCAR-3 it was > 100 µM (inactive); with SK-OV-3 it was > 100 µM (inactive); with NCI-H460, > 100 µM (inactive); in the experiment with HCC 2998, > 100 µM (inactive). Further, the GI50 in the experiment with MCF7, in the experiment on TK-10, in the experiment with HCT-116, with OVCAR-8, in the experiment with T47D and with MDA-MB-435 was > 100 µM (inactive) in each case. Also, the GI50 with HCT-15 is greater than 100 µM; with NCI-H522 it was > 100 µM (inactive); in the experiment with MDA-N, > 100 µM (inactive); in the experiment with CAKI-1 it was > 100 µM (inactive); in the experiment with SNB-75, > 100 µM (inactive); in the experiment on OVCAR-4, > 100 µM (inactive).

As to `O=C1CSC(c2ccc(Cl)cc2)N1c1ccc(-n2c(-c3ccccc3)nc3ccccc3c2=O)cc1` (centres undefined), the GI50 in the experiment on MOLT-4 was 21.2 µM (inactive); in the experiment on HOP-92, 10.3 µM (inactive); in the experiment with OVCAR-3, > 100 µM (inactive); in the experiment with SK-OV-3 it was > 100 µM (inactive); in the experiment on NCI-H460, 36.5 µM (inactive); with HCC 2998, 34.5 µM (inactive). Besides, the GI50 with MCF7 was 30.8 µM (inactive); in the experiment with TK-10 it was > 100 µM (inactive); with HCT-116, 34.3 µM (inactive); in the experiment with OVCAR-8, > 100 µM (inactive); with T47D, 8.36 µM (inactive); in the experiment with MDA-MB-435, 56 µM (inactive). Moreover, the GI50 in the experiment with HCT-15 is 20.4 µM; in the experiment with NCI-H522, 25.9 µM (inactive); in the experiment with MDA-N it was > 100 µM (inactive); in the experiment with CAKI-1, > 100 µM (inactive); in the experiment on SNB-75, 7.64 µM (inactive); in the experiment with OVCAR-4, 12.9 µM (inactive).

For `COc1cc2c(cc1OC)C1C=NC(C2)c2cc(OC)c(OC)cc21` (centres undefined), the GI50 was 40.5 µM (inactive) in the experiment on MOLT-4; 4.49 µM (inactive) with HOP-92; > 100 µM (inactive) in the experiment with OVCAR-3; > 100 µM (inactive) in the experiment on SK-OV-3; > 100 µM (inactive) in the experiment with NCI-H460; > 100 µM (inactive) in the experiment on HCC 2998. Further, the GI50 in the experiment on MCF7 is 60.1 µM (inactive); with TK-10 it was > 100 µM (inactive); in the experiment on HCT-116, > 100 µM (inactive); in the experiment with OVCAR-8 it was 96.2 µM (inactive); with T47D, 90.8 µM (inactive); in the experiment with MDA-MB-435 it was > 100 µM (inactive). For the same compound, the 50% growth inhibitory concentration (GI50) with HCT-15 is 85.9 µM; with NCI-H522, 46.3 µM (inactive); in the experiment with MDA-N it was > 100 µM (inactive); in the experiment with CAKI-1 it was 97.7 µM (inactive); in the experiment on SNB-75 it was > 100 µM (inactive); with OVCAR-4, > 100 µM (inactive).

Take `CC(C)OC(=O)NNc1cc(Cl)ccc1Cl`: the concentration for 50% growth inhibition (GI50) with MOLT-4 is 0.0611 µM (active); with HOP-92, 34.8 µM (inactive); with OVCAR-3, > 100 µM (inactive); in the experiment with SK-OV-3, > 100 µM (inactive); in the experiment on NCI-H460, 80.7 µM (inactive); in the experiment with HCC 2998, 61 µM (inactive). Further, the GI50 was 57.9 µM (inactive) in the experiment on MCF7; 36.6 µM (inactive) in the experiment on TK-10; 73.3 µM (inactive) in the experiment with HCT-116; > 100 µM (inactive) in the experiment on OVCAR-8; 42 µM (inactive) in the experiment with T47D; > 100 µM (inactive) in the experiment with MDA-MB-435. Further, the GI50 in the experiment on HCT-15 is 91.2 µM; in the experiment with NCI-H522, 31.5 µM (inactive); in the experiment on MDA-N, 73.6 µM (inactive); with CAKI-1 it was 79.6 µM (inactive); with SNB-75, 58.3 µM (inactive).

As to `CCOC(=O)C(Cl)(Cl)/S(=N\S(=O)(=O)c1ccccc1)NC(=O)c1ccccc1` (centres undefined), the GI50 with MOLT-4, in the experiment on HOP-92, with OVCAR-3, in the experiment on SK-OV-3, in the experiment on NCI-H460 and in the experiment on MCF7 was > 100 µM (inactive) throughout. The GI50 with TK-10 is > 100 µM (inactive); with HCT-116, > 100 µM (inactive); with OVCAR-8 it was > 100 µM (inactive); in the experiment with T47D, > 100 µM (inactive); in the experiment with MDA-MB-435 it was > 100 µM (inactive); in the experiment on HCT-15, greater than 100 µM. Moreover, the GI50 in the experiment on MDA-N, with RXF 393, in the experiment with SNB-75 and in the experiment on OVCAR-4 was > 100 µM (inactive) throughout.

As to `O=C(Nc1ccc(Cl)cc1)[C-](C(=O)c1ccc(Br)cc1)[n+]1cccc(-c2ccc(Cl)cc2)n1`, the GI50 in the experiment with MOLT-4 was 5.05 µM (inactive); in the experiment with HOP-92, 3.61 µM (inactive); in the experiment on OVCAR-3, 2.92 µM (inactive); with SK-OV-3, 6.35 µM (inactive); in the experiment on NCI-H460, 3.44 µM (inactive); with HCC 2998 it was 6.78 µM (inactive). In addition, the GI50 was 1.41 µM (inactive) in the experiment with MCF7; 5.74 µM (inactive) with TK-10; 3.09 µM (inactive) in the experiment on HCT-116; 3.56 µM (inactive) in the experiment on OVCAR-8; 1.64 µM (inactive) with T47D; 3.07 µM (inactive) in the experiment on MDA-MB-435. The GI50 in the experiment on HCT-15 was 3.93 µM; with NCI-H522, 2.26 µM (inactive); with MDA-N, 4.53 µM (inactive); in the experiment on CAKI-1, 2.56 µM (inactive); in the experiment with SNB-75, 6.49 µM (inactive); in the experiment on OVCAR-4, 3.65 µM (inactive).

For the compound `Nc1ccc(C(=O)c2cn(CCN3CCOCC3)c3ccccc23)c2ccccc12`, the GI50 in the experiment on MOLT-4 was 19.4 µM (inactive); in the experiment with OVCAR-3, 32.6 µM (inactive); with SK-OV-3, > 100 µM (inactive); in the experiment with NCI-H460, 34.3 µM (inactive); with HCC 2998, 47.2 µM (inactive); in the experiment with MCF7 it was 34 µM (inactive). Moreover, the GI50 in the experiment with HCT-116 was 31.7 µM (inactive); in the experiment on OVCAR-8, 20.2 µM (inactive); in the experiment on T47D, 24.4 µM (inactive); in the experiment with MDA-MB-435, 27.7 µM (inactive); in the experiment on HCT-15, 18.2 µM; in the experiment on NCI-H522, 21 µM (inactive). The GI50 in the experiment on MDA-N was 32.5 µM (inactive); in the experiment with CAKI-1, 62.8 µM (inactive); in the experiment with OVCAR-4, 33 µM (inactive).

On to `OCCCSc1ccccc1SCCCO`, for which the GI50 is > 100 µM (inactive) in the experiment with MOLT-4; < 0.01 µM (active) with HOP-92; > 100 µM (inactive) with OVCAR-3; > 100 µM (inactive) with SK-OV-3; > 100 µM (inactive) in the experiment on NCI-H460; > 100 µM (inactive) in the experiment with HCC 2998. Besides, the GI50 in the experiment with MCF7, with TK-10, in the experiment with HCT-116, in the experiment on OVCAR-8, in the experiment on T47D and in the experiment with MDA-MB-435 was > 100 µM (inactive) each time. For the same compound, the 50% growth inhibitory concentration (GI50) in the experiment with HCT-15 is greater than 100 µM; in the experiment on NCI-H522 it was > 100 µM (inactive); with MDA-N it was > 100 µM (inactive); in the experiment with SNB-75, 17.2 µM (inactive); in the experiment with OVCAR-4, > 100 µM (inactive).

In the case of `CC(C)(NC(=O)OCc1ccccc1)C(=O)NC(Cc1ccccc1)C(=O)O` (centres undefined) (Cbz-[Aib]-[ξF]-OH), the GI50 in the experiment on MOLT-4, in the experiment with HOP-92, in the experiment on OVCAR-3, in the experiment on SK-OV-3, in the experiment on NCI-H460 and with MCF7 was > 100 µM (inactive) in each case. For the same compound, the GI50 was > 100 µM (inactive) with HCT-116; > 100 µM (inactive) with OVCAR-8; > 100 µM (inactive) in the experiment with T47D; > 100 µM (inactive) in the experiment on MDA-MB-435; greater than 100 µM in the experiment on HCT-15; > 100 µM (inactive) with NCI-H522. Further, the GI50 in the experiment with MDA-N, with CAKI-1, in the experiment on SNB-75 and with OVCAR-4 was > 100 µM (inactive) each time.

For the compound `O=C1C(CO)=C[C@@H](O)[C@H]2O[C@@H]12` [EPOXYDON], the GI50 in the experiment with MOLT-4 is > 100 µM (inactive); with HOP-92 it was > 100 µM (inactive); in the experiment on OVCAR-3, > 100 µM (inactive); in the experiment with SK-OV-3, > 100 µM (inactive); in the experiment on NCI-H460, 53.1 µM (inactive); with MCF7 it was 21.7 µM (inactive). For the same compound, the GI50 was 31.1 µM (inactive) in the experiment on HCT-116; > 100 µM (inactive) with OVCAR-8; > 100 µM (inactive) with T47D; 25.2 µM (inactive) with MDA-MB-435; greater than 100 µM in the experiment on HCT-15; > 100 µM (inactive) in the experiment on NCI-H522. Besides, the GI50 in the experiment on MDA-N was > 100 µM (inactive); in the experiment on CAKI-1, > 100 µM (inactive); with SNB-75, 37.4 µM (inactive); in the experiment on OVCAR-4, 17.7 µM (inactive).

For `C[C@]12CC[C@H]3[C@@H](CC[C@]4(O)C[C@@H](O)CC[C@]34C=O)[C@@]1(O)CC[C@@H]2C1=CC(=O)OC1` [STROPHANTHIDIN], the GI50 with MOLT-4 is 0.112 µM (active); in the experiment with HOP-92, 1.25 µM (inactive); in the experiment with OVCAR-3, 0.421 µM (active); with SK-OV-3, 0.568 µM (active); in the experiment with NCI-H460 it was 0.195 µM (active); with HCC 2998 it was 4.27 µM (inactive). The concentration for 50% growth inhibition (GI50) with TK-10 is 0.465 µM (active); in the experiment with HCT-116, 0.259 µM (active); in the experiment on OVCAR-8 it was 0.498 µM (active); in the experiment on T47D, 0.697 µM (active); in the experiment on MDA-MB-435, 0.522 µM (active); in the experiment with HCT-15, 0.413 µM. Also, the concentration for 50% growth inhibition (GI50) in the experiment with NCI-H522 is 0.0942 µM (active); in the experiment with MDA-N, 0.372 µM (active); with CAKI-1 it was 0.19 µM (active); in the experiment with RXF 393, 0.274 µM (active); in the experiment with SNB-75 it was 1.14 µM (inactive); in the experiment on OVCAR-4, 0.298 µM (active).

The values above are taken from ChEMBL document CHEMBL1201862, “PubChem BioAssay data set” (2004).
